# According to ChEMBL document CHEMBL1156733, “Structure-activity relationship studies on a series of piperazinebenzylalcohols and their ketone and amine analogs as melanocortin-4 receptor ligands” (Bioorg Med Chem Lett, 2008):
# Key:
# [1] = target: T1, Melanocortin receptor 4 (Homo sapiens, UniProt P32245)
# [2] = species on record: Homo sapiens; assay: Selectivity for human MC4 receptor over human MC4 receptor Asp122Ala mutant
# [3] = target: T1, Melanocortin receptor 4; assay: Antagonist activity at human MC4 receptor expressed in cells assessed as inhibition of alpha-MSH-stimulated cAMP production; type: functional, cell-based
# [4] = target: Melanocortin receptor 4 (Homo sapiens, UniProt P32245, D122A); assay: Binding affinity to human MC4 receptor Asp122Ala mutant
# Sequence of Melanocortin receptor 4 (Homo sapiens, UniProt P32245, D122A) (P32245 whole entry D122A): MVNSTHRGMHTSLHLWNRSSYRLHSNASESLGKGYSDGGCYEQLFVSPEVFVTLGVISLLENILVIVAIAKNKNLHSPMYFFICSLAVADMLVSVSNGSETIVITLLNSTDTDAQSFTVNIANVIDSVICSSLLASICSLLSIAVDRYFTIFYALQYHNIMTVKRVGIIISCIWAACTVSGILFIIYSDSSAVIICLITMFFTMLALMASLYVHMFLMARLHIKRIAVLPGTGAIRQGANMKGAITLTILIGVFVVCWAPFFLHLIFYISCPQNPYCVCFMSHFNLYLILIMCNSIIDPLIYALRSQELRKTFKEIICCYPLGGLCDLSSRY
# [5] = target: Melanocortin receptor 5 (Homo sapiens, UniProt P33032); assay: Binding affinity to MC5 receptor
# Sequence of Melanocortin receptor 5 (P33032 whole entry): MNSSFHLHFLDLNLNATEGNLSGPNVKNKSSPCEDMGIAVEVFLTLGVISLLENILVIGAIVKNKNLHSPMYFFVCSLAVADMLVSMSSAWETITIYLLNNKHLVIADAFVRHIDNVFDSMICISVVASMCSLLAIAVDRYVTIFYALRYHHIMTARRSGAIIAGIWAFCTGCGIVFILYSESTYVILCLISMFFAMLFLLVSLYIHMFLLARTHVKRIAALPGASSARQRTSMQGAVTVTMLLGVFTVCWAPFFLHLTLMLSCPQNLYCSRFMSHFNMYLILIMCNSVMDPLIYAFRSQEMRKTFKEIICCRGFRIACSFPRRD
# [6] = system: Melanocortin receptor 1 (Homo sapiens); assay: Inhibition of human MC1 receptor at 10 uM
# [7] = target: Melanocortin receptor 3 (Homo sapiens, UniProt P41968); assay: Binding affinity to MC3 receptor
# Sequence of Melanocortin receptor 3 (P41968 whole entry): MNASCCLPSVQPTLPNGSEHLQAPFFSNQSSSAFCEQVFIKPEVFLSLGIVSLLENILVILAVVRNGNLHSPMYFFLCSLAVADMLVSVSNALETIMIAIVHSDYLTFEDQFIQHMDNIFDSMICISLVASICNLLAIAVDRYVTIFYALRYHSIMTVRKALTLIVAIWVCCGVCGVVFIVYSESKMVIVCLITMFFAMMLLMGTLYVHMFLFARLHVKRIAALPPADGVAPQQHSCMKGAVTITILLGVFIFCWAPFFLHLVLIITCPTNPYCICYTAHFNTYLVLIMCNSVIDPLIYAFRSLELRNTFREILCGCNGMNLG
# T1 sequence (P32245 whole entry): as the sequence (P32245 whole entry D122A) above, with A122D counted along it
Structure (SMILES),Ki [1] [nM],also measured
CCCCN(CCCC)[C@H](Cc1ccc(Cl)cc1Cl)C(=O)N1CCN(c2ccccc2C(N)CC(C)C)CC1 (some centres not stated),120,
CC(C)C(O)c1ccccc1N1CCN(C(=O)[C@@H](Cc2ccc(Cl)cc2Cl)NC(=O)CCN)CC1 (some centres not stated),110,
CC(C)CC(=O)c1ccccc1N1CCN(C(=O)[C@@H](Cc2ccc(Cl)cc2Cl)NC(=O)[C@H](C)N)CC1,26,
CC(C)CC(O)c1ccccc1N1CCN(C(=O)[C@@H](Cc2ccc(Cl)cc2Cl)NC(=O)[C@H](C)N)CC1 (some centres not stated),16,
CNCC(=O)N[C@H](Cc1ccc(Cl)cc1Cl)C(=O)N1CCN(c2ccccc2C(O)CC(C)C)CC1 (some centres not stated),8.3,fold change (FC) [2]: 60; IC50 [3]: 420 nM; Ki [4]: 500 nM; Ki [5]: 1800 nM; inhibition [6]: 34%; Ki [7]: 2500 nM
CCC(O)(CC)c1ccccc1N1CCN(C(=O)[C@@H](Cc2ccc(Cl)cc2Cl)NC(=O)NC2CC2)CC1,42,
CCC(O)(CC)c1ccccc1N1CCN(C(=O)[C@@H](Cc2ccc(Cl)cc2Cl)NC(=O)[C@@H](C)N)CC1,65,
CC(C)CC(=O)c1ccccc1N1CCN(C(=O)[C@@H](Cc2ccc(Cl)cc2Cl)NC(C)C)CC1,560,
CCCCCN(CCCCC)[C@H](Cc1ccc(Cl)cc1Cl)C(=O)N1CCN(c2ccccc2C(=O)CC(C)C)CC1,5800,
CC(C)CC(O)c1ccccc1N1CCN(C(=O)[C@@H](Cc2ccc(Cl)cc2Cl)NCC2CCOC2)CC1 (some centres not stated),89,
CCCCN(CCCC)[C@H](Cc1ccc(Cl)cc1Cl)C(=O)N1CCN(c2ccccc2C(=O)CC(C)C)CC1,1700,
CC(C)CC(N)c1ccccc1N1CCN(C(=O)[C@@H](Cc2ccc(Cl)cc2Cl)N(CC(C)C)CC(C)C)CC1 (some centres not stated),1200,
CC(C)CC(=O)c1ccccc1N1CCN(C(=O)[C@@H](Cc2ccc(Cl)cc2Cl)NC(=O)C(C)(C)N)CC1,110,
CC(C)CC(=O)c1ccccc1N1CCN(C(=O)[C@@H](Cc2ccc(Cl)cc2Cl)N(CC2CC2)CC2CC2)CC1,> 10000,
CC(C)CC(=O)c1ccccc1N1CCN(C(=O)[C@@H](Cc2ccc(Cl)cc2Cl)N(CC(C)C)CC(C)C)CC1,> 10000,
CC(C)CC(O)c1ccccc1N1CCN(C(=O)[C@@H](Cc2ccc(Cl)cc2Cl)N(CC2CC2)CC2CC2)CC1 (some centres not stated),> 10000,
CC(C)CC(O)c1ccccc1N1CCN(C(=O)[C@@H](Cc2ccc(Cl)cc2Cl)N(Cc2ccccn2)Cc2ccccn2)CC1 (some centres not stated),83,

Structure (SMILES),Ki [1] [nM],also measured
CC(C)CC(O)c1ccccc1N1CCN(C(=O)[C@@H](Cc2ccc(Cl)cc2Cl)NC(C)C)CC1 (some centres not stated),380,
CCCCCN(CCCCC)[C@H](Cc1ccc(Cl)cc1Cl)C(=O)N1CCN(c2ccccc2C(N)CC(C)C)CC1 (some centres not stated),350,
CCC(O)(CC)c1ccccc1N1CCN(C(=O)[C@@H](Cc2ccc(Cl)cc2Cl)NC(=O)CNC)CC1,13,
CCC(C)C(O)c1ccccc1N1CCN(C(=O)[C@@H](Cc2ccc(Cl)cc2Cl)NC(=O)CCN)CC1 (some centres not stated),47,
CCC(O)(CC)c1ccccc1N1CCN(C(=O)[C@@H](Cc2ccc(Cl)cc2Cl)NC(=O)CN)CC1,26,
CC(C)CC(O)c1ccccc1N1CCN(C(=O)[C@@H](Cc2ccc(Cl)cc2Cl)NC(=O)C2CCCNC2)CC1 (some centres not stated),49,
CCC(O)(CC)c1ccccc1N1CCN(C(=O)[C@@H](Cc2ccc(Cl)cc2Cl)NC(=O)C(C)(C)N)CC1,38,
CNCC(=O)N[C@H](Cc1ccc(Cl)cc1Cl)C(=O)N1CCN(c2ccccc2C(=O)CC(C)C)CC1,31,fold change (FC) [2]: 9; Ki [4]: 290 nM
CCCCN(CCCC)[C@H](Cc1ccc(Cl)cc1Cl)C(=O)N1CCN(c2ccccc2C(O)CC(C)C)CC1 (some centres not stated),1400,
CNC(C)(C)C(=O)N[C@H](Cc1ccc(Cl)cc1Cl)C(=O)N1CCN(c2ccccc2C(O)CC(C)C)CC1 (some centres not stated),21,
C=CC(C)C(O)c1ccccc1N1CCN(C(=O)[C@@H](Cc2ccc(Cl)cc2Cl)NC(=O)CCN)CC1 (some centres not stated),29,
CCC(O)(CC)c1ccccc1N1CCN(C(=O)[C@@H](Cc2ccc(Cl)cc2Cl)NC(=O)N2CCCC2=O)CC1,110,
CC(C)CC(N)c1ccccc1N1CCN(C(=O)[C@@H](Cc2ccc(Cl)cc2Cl)NC(=O)C(C)(C)N)CC1 (some centres not stated),7.7,
CNC(C)(C)C(=O)N[C@H](Cc1ccc(Cl)cc1Cl)C(=O)N1CCN(c2ccccc2C(N)CC(C)C)CC1 (some centres not stated),4.7,
CC(C)CC(=O)c1ccccc1N1CCN(C(=O)[C@@H](Cc2ccc(Cl)cc2Cl)N(Cc2ccccn2)Cc2ccccn2)CC1,110,
CC(C)CC(N)c1ccccc1N1CCN(C(=O)[C@@H](Cc2ccc(Cl)cc2Cl)NC(=O)CN)CC1 (some centres not stated),2,
NCCC(=O)N[C@H](Cc1ccc(Cl)cc1Cl)C(=O)N1CCN(c2ccccc2C(O)Cc2ccccc2)CC1 (some centres not stated),54,
